{"source": "patent US20100317850A1", "about": "(priority 2008, published 2010)", "tested_on": "Aβ42 production", "assay": "Quantification of Aβ peptide in culture of neurons from rat fetus brain (Aβ ELISA)", "type": "cell-based", "details": "rat primary neuronal culture (cerebral cortex, embryonic day 18 Wistar rats), medium collected three days after addition of the compound, Aβx-42 ELISA, read-out: Aβ42 production reducing effect IC50", "how_it_was_run": "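Primary cortical neurons from embryonic day 18 Wistar rats were cultured 4 days, then exposed to compound in Neurobasal/B27 without 2-ME, final DMSO ≤1%. After three days, medium was collected and Aβx-42 measured undiluted by sandwich ELISA.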", "note": "Read-outs that look alike come from different tables or passages of the source."}
{"molecule": "NC1=N[C@@]2(c3cc(NC(=O)c4cnc(OCF)cn4)ccc3F)COC[C@H]2CS1", "note": "(single isomer, unassigned) [Example 27, N-[3-((7S*,7aS*)-2-amino-4a,5-dihydro-4H-furo[3,4-d][1,3]thiazin-7a-yl)-4-fluorophenyl]-5-fluoromethoxypyrazine-2-carboxamide]", "values": [{"measurement": "IC50", "setting": "Neuron, 72 h", "result": 11, "unit": "nM"}]}
{"molecule": "NC1=N[C@@]2(c3cccc(-c4cccnc4F)c3)CN(C(=O)CC3CC3)C[C@H]2CS1", "note": "[Example 48]", "values": [{"measurement": "IC50", "setting": "Neuron, 72 h", "result": 575, "unit": "nM"}]}
{"molecule": "NC1=N[C@@]2(c3cc(NC(=O)c4ncccn4)ccc3F)CCCC[C@H]2CS1", "note": "[Example 121]", "values": [{"measurement": "IC50", "setting": "Neuron, 72 h", "result": 263, "unit": "nM"}]}
{"molecule": "NC1=N[C@@]2(c3cc(NC(=O)c4cnc(OC(F)F)cn4)ccc3F)C[C@H](F)C[C@H]2CS1", "note": "(relative stereo) [Example 98, (+)-N-[3-((4aR*,6R*,7aS*)-2-amino-6-fluoro-4a,5,6,7-tetrahydro-4H-cyclopenta[d][1,3]thiazin-7a-yl)-4-fluorophenyl]-5-difluoromethoxypyrazine-2-carboxamide]", "values": [{"measurement": "IC50", "setting": "Neuron, 72 h", "result": 1, "unit": "nM"}]}
{"molecule": "N#Cc1ccc(C(=O)Nc2ccc(F)c([C@]34CCOC[C@H]3CSC(N)=N4)c2)nc1", "note": "(single isomer, unassigned) [Example 28, N-[3-((4aS*,8aS*)-2-amino-4a,7,8-tetrahydro-4H-6-oxa-3-thia-1-azanaphthalen-8a-yl)-4-fluorophenyl]-5-cyanopyridine-2-carboxamide]", "values": [{"measurement": "IC50", "setting": "Neuron, 72 h", "result": 12, "unit": "nM"}]}
{"molecule": "NC1=N[C@@]2(c3cccc(-c4cncnc4)c3)CN(c3cnccn3)C[C@H]2CS1", "note": "[Example 230]", "values": [{"measurement": "IC50", "setting": "Neuron, 72 h", "result": 202, "unit": "nM"}]}
{"molecule": "NC1=N[C@@]2(c3cccc(-c4cccnc4F)c3)CN(c3ccccc3)C[C@H]2CS1", "note": "(racemic) [Example 36, (±)-(4aR,7aS)-7a-[3-(2-fluoro-pyridin-3-yl)phenyl]-6-phenyl-4,4a,5,6,7,7a-hexahydropyrrolo[3,4-d][1,3]thiazin-2-ylamine]", "values": [{"measurement": "IC50", "setting": "Neuron, 72 h", "result": 384, "unit": "nM"}]}
{"molecule": "N-[3-((4aR*,9aS*)-2- amino-4a,5,6,7,8,9-hexahydro-4H- cyclohepta[d][1,3]thiaziin-9a-yl)-4- fluorophenyl]-6-chloropyridine-2- carboxamide [Example 248]", "values": [{"measurement": "IC50", "result": 16, "unit": "nM"}]}
{"molecule": "NC1=N[C@@]2(c3cc(NC(=O)c4nccs4)ccc3F)CCC[C@H]2CS1", "note": "(single isomer, unassigned) [Example 137, N-[3-((4aR*,7aS*)-2-amino-4a,5,6,7-tetrahydro-4H-cyclopenta[d][1,3]thiazin-7a-yl)-4-fluorophenyl]-thiazole-2-carboxamide]", "values": [{"measurement": "IC50", "setting": "Neuron, 72 h", "result": 47, "unit": "nM"}]}
{"molecule": "N#Cc1ccc(C(=O)Nc2ccc(F)c([C@]34C[C@H](CF)OC[C@H]3CSC(N)=N4)c2)nc1", "note": "[Example 42, N-[3-((4aS,7R,8aS)-2-amino-7-fluoromethyl-4a,5,7,8-tetrahydro-4H-6-oxa-3-thia-1-azanaphthalen-8a-yl)-4-fluorophenyl]-5-cyanopyridine-2-carboxamide]", "values": [{"measurement": "IC50", "setting": "Neuron, 72 h", "result": 4, "unit": "nM"}]}
{"molecule": "CC[C@H]1OC[C@]2(c3cc(NC(=O)c4ccc(Cl)cn4)ccc3F)N=C(N)SC[C@H]12", "note": "(relative stereo) [Example 51, N-[3-((4aS*,5R*,7aS*)-2-amino-5-ethyl-4a,5-dihydro-4H-furo[3,4-d][1,3]thiazin-7a-yl)-4-fluorophenyl]-5-chloropyridine-2-carboxamide]", "values": [{"measurement": "IC50", "setting": "Neuron, 72 h", "result": 1.6, "unit": "nM"}]}
{"molecule": "NC1=N[C@@]2(c3cc(NC(=O)c4ccc(Cl)cn4)ccc3F)CCC[C@H]2CS1", "note": "(relative stereo) [Example 5, (+)-N-[3-((4aR*,7aS*)-2-amino-4a,5,6,7-tetrahydro-4H-cyclopenta[d][1,3]thiazin-7a-yl)-4-fluorophenyl]-5-chloropyridine-2-carboxamide]", "values": [{"measurement": "IC50", "setting": "Neuron, 72 h", "result": 3, "unit": "nM"}]}
{"molecule": "NC1=N[C@@]2(c3cc(NC(=O)c4ncccn4)ccc3F)CCC[C@H]2CS1", "note": "[Example 198]", "values": [{"measurement": "IC50", "setting": "Neuron, 72 h", "result": 129, "unit": "nM"}]}
{"molecule": "NC1=N[C@@]2(c3cc(NC(=O)c4ncccc4Br)ccc3F)CCCCC[C@H]2CS1", "note": "[Example 253]", "values": [{"measurement": "IC50", "setting": "Neuron, 72 h", "result": 171, "unit": "nM"}]}
{"molecule": "Cc1ccc(C(=O)Nc2ccc(F)c([C@]34CCCC[C@H]3CSC(N)=N4)c2)nc1", "note": "[Example 225]", "values": [{"measurement": "IC50", "setting": "Neuron, 72 h", "result": 198, "unit": "nM"}]}
{"molecule": "Cc1cc(Cl)ccc1C(=O)Nc1ccc(F)c([C@]23CCC[C@H]2CSC(N)=N3)c1", "note": "[Example 197]", "values": [{"measurement": "IC50", "setting": "Neuron, 72 h", "result": 220, "unit": "nM"}]}
{"molecule": "C[C@H]1OC[C@]2(c3cc(NC(=O)c4cnc(OC(F)F)cn4)ccc3F)N=C(N)SC[C@H]12", "note": "(relative stereo) [Example 55, N-[3-((4aS*,5R*,7aS*)-2-amino-5-methyl-4a,5-dihydro-4H-furo[3,4-d][1,3]thiazin-7a-yl)-4-fluorophenyl]-5-difluoromethoxypyrazine-2-carboxamide]", "values": [{"measurement": "IC50", "setting": "Neuron, 72 h", "result": 1.1, "unit": "nM"}]}
{"molecule": "NC1=N[C@@]2(c3cc(NC(=O)c4ncccc4C(F)(F)F)ccc3F)CCCC[C@H]2CS1", "note": "[Example 261]", "values": [{"measurement": "IC50", "setting": "Neuron, 72 h", "result": 277, "unit": "nM"}]}
{"molecule": "COC[C@H]1OC[C@]2(c3cc(NC(=O)c4cnc(OC(F)F)cn4)ccc3F)N=C(N)SC[C@H]12", "note": "[Example 67, N-[3-((4aS,5S,7aS)-2-amino-5-methoxymethyl-4a,5-dihydro-4H-furo[3,4-d][1,3]thiazin-7a-yl)-4-fluorophenyl]-5-difluoromethoxy-pyrazine-2-carboxamide]", "values": [{"measurement": "IC50", "setting": "Neuron, 72 h", "result": 1.4, "unit": "nM"}]}
{"molecule": "CO[C@@H]1C[C@H]2CSC(N)=N[C@@]2(c2cc(NC(=O)c3cnc(OCF)cn3)ccc2F)C1", "note": "(relative stereo) [Example 96, (+)-N-[3-((4aR*,6R*,7aS*)-2-amino-6-methoxy-4a,5,6,7-tetrahydro-4H-cyclopenta[d][1,3]thiazin-7a-yl)-4-fluorophenyl]-5-fluoromethoxypyrazine-2-carboxamide]", "values": [{"measurement": "IC50", "setting": "Neuron, 72 h", "result": 1, "unit": "nM"}]}
{"molecule": "NC1=N[C@@]2(c3cc(NC(=O)c4ncc(Cl)cc4Cl)ccc3F)CCOC[C@H]2CS1", "note": "(single isomer, unassigned) [Example 185, N-[3-((4aS*,8aS*)-2-amino-4a,5,7,8-tetrahydro-4H-6-oxa-3-thia-1-azanaphthalen-8a-yl)-fluorophenyl]-3,5-dichloropyridine-2-carboxamide]", "values": [{"measurement": "IC50", "setting": "Neuron, 72 h", "result": 10, "unit": "nM"}]}
{"molecule": "NC1=N[C@@]2(c3cccc(-c4cccnc4F)c3)CN(C(=O)C3CC3)C[C@H]2CS1", "note": "[Example 84]", "values": [{"measurement": "IC50", "setting": "Neuron, 72 h", "result": 893, "unit": "nM"}]}
{"molecule": "NC1=N[C@@]2(c3cc(NC(=O)c4ncc(Br)cn4)ccc3F)CCOC[C@H]2CS1", "note": "[Example 199]", "values": [{"measurement": "IC50", "setting": "Neuron, 72 h", "result": 12, "unit": "nM"}]}
{"molecule": "NC1=N[C@@]2(c3cccc(-c4cccnc4F)c3)CN(c3ncccn3)C[C@H]2CS1", "note": "(racemic) [Example 37, (±)-(4aR*,7aS*)-7a-[3-(2-fluoropyridin-3-yl)phenyl]-6-pyrimidin-2-yl-4,4a,5,6,7,7a-hexahydropyrrolo[3,4-d][1,3]thiazin-2-ylamine]", "values": [{"measurement": "IC50", "setting": "Neuron, 72 h", "result": 29, "unit": "nM"}]}
{"molecule": "CCO[C@H]1C[C@H]2CSC(N)=N[C@@]2(c2cc(NC(=O)c3ccc(C#N)cn3)ccc2F)C1", "note": "(relative stereo) [Example 89, (+)-N-[3-((4aR*,6S*,7aS*)-2-amino-6-ethoxy-4a,5,6,7-tetrahydro-4H-cyclopenta[d][1,3]thiazin-7a-yl)-4-fluorophenyl]-5-cyanopyridine-2-carboxamide]", "values": [{"measurement": "IC50", "setting": "Neuron, 72 h", "result": 3.2, "unit": "nM"}]}
{"molecule": "NC1=N[C@@]2(c3cccc(-c4cccnc4F)c3)CN(c3cnccn3)C[C@H]2CS1", "note": "[Example 87]", "values": [{"measurement": "IC50", "setting": "Neuron, 72 h", "result": 62, "unit": "nM"}]}
{"molecule": "NC1=N[C@@]2(c3cc(NC(=O)c4ccncn4)ccc3F)CCC[C@H]2CS1", "note": "[Example 233]", "values": [{"measurement": "IC50", "setting": "Neuron, 72 h", "result": 86, "unit": "nM"}]}
{"molecule": "N#Cc1cnc(C(=O)Nc2ccc(F)c([C@]34CCC[C@H]3CSC(N)=N4)c2)nc1", "note": "[Example 126]", "values": [{"measurement": "IC50", "setting": "Neuron, 72 h", "result": 70, "unit": "nM"}]}
{"molecule": "NC1=N[C@@]2(c3cc(NC(=O)c4ccc(OC(F)F)cn4)ccc3F)COC[C@H]2CS1", "note": "(relative stereo) [Example 167, N-[3-((4aS*,7aS*)-2-amino-4a,5-dihydro-4H-furo[3,4-d][1,3]thiazin-7a-yl)-4-fluorophenyl]-5-difluoromethoxypyridine-2-carboxamide]", "values": [{"measurement": "IC50", "setting": "Neuron, 72 h", "result": 6, "unit": "nM"}]}
{"molecule": "NC1=N[C@@]2(c3cc(NC(=O)c4ccc(Cl)cn4)ccc3OC(F)(F)F)CCOC[C@H]2CS1", "note": "(racemic) [Example 149]", "values": [{"measurement": "IC50", "setting": "Neuron, 72 h", "result": 414, "unit": "nM"}]}
{"molecule": "NC1=N[C@@]2(c3cc(NC(=O)c4ncccc4C(F)(F)F)ccc3F)CCC[C@H]2CS1", "note": "(single isomer, unassigned) [Example 170, N-[3-((4aR*,7aS*)-2-amino-4a,5,6,7-tetrahydro-4H-cyclopenta[d][1,3]thiazin-7a-yl)-4-fluorophenyl]-3-trifluoromethylpyridine 2-carboxamide]", "values": [{"measurement": "IC50", "setting": "Neuron, 72 h", "result": 210, "unit": "nM"}]}
{"molecule": "NC1=N[C@@]2(c3cc(NC(=O)c4ccc(OC(F)F)cn4)ccc3F)CCOC[C@H]2CS1", "note": "(relative stereo) [Example 81, N-[3-((4aS*,8aS*)-2-amino-4a,5,7,8-tetrahydro-4H-6-oxa-3-thia-1-azanaphthalen-8a-yl)-4-fluorophenyl]-5-difluoromethoxypyridine-2-carboxamide]", "values": [{"measurement": "IC50", "setting": "Neuron, 72 h", "result": 14, "unit": "nM"}]}
{"molecule": "NC1=N[C@@]2(c3cc(NC(=O)c4ccc(OC(F)F)cn4)ccc3F)CCC[C@H]2CS1", "note": "(single isomer, unassigned) [Example 175, N-[3-((4aR*,7aS*)-2-amino-4a,5,6,7-tetrahydro-4H-cyclopenta[d][1,3]thiazin-7a-yl)-4-fluorophenyl]-5-difluoromethoxypyridine-2-carboxamide]", "values": [{"measurement": "IC50", "setting": "Neuron, 72 h", "result": 9, "unit": "nM"}]}
{"molecule": "CO[C@H]1CC[C@]2(c3cc(NC(=O)c4ccc(C#N)cn4)ccc3F)N=C(N)SC[C@@H]2C1", "note": "(relative stereo) [Example 204, N-[3-((4aR*,6S*,8aS*)-2-amino-6-methoxy-4,4a,5,6,7,8-hexahydrobenzo[d][1,3]thiazin-8a-yl)-4-fluorophenyl]-5-cyanopyridine-2-carboxamide]", "values": [{"measurement": "IC50", "setting": "Neuron, 72 h", "result": 23, "unit": "nM"}]}
{"molecule": "NC1=N[C@@]2(c3cc(NC(=O)c4ccc(Cl)cn4)ccc3F)CCOC[C@H]2CS1", "note": "(relative stereo) [Example 30, N-[3-((4aS*,8aS*)-2-amino-4a,5,7,8-tetrahydro-4H-6-oxa-3-thia-1-azanaphthalen-8a-yl)-4-fluorophenyl]-5-chloropyridine-2-carboxamide]", "values": [{"measurement": "IC50", "setting": "Neuron, 72 h", "result": 11, "unit": "nM"}]}
